Data on two compounds can be found in paper PMC7181277, “Synthesis and Biological Evaluation of New Antitubulin Agents Containing 2-(3′,4′,5′-trimethoxyanilino)-3,6-disubstituted-4,5,6,7-tetrahydrothieno[2,3-c]pyridine Scaffold” (Molecules, 2020).

Structures are written as SMILES. Like-named read-outs stand apart in the source and are kept apart here. Where only a bound is given, the exact number is not on record here.

For experiment [1], the system named is murine leukemia (L1210) cells. Nature of the experiment: In vitro antiproliferative assay, L1210 cells. The experiment is classed as cell-based. Particulars: Mus musculus; murine leukemia L1210, 72 h, cell count; mean ± SE. An excerpt: (§1) In Table 1 we report the in vitro antiproliferative activity of 2-(3′,4′,5′-trimethoxyanilino)-4,5,6,7-tetrahydrothieno[2,3-c]pyridine derivatives 3a–3j and the related 4,5,6,7-tetrahydrobenzo[b]thiophenes 3k–3p against a panel of three cell lines, which were derived from different cancer types, including murine leukemia (L1210), human T-lymphoblastoid leukemia (CEM), and human cervix carcinoma (HeLa) cells.
(§2) Murine leukemia L1210, human T-lymphocyte leukemia CEM, human cervix carcinoma (HeLa), and human chronic myelogenous leukemia K562 cells (3–5 × 10^4 cells) and a serial (5-fold) dilution of the test compounds were added to a 96-well microtiter plate. The cells were incubated for 72 h at 37 °C in a humidified 5% CO2 atmosphere. At the end of the incubation period, the cells were counted in a Coulter Counter (Coulter Electronics Ltd., Harpenden Herts, United Kingdom). The IC50 (50% inhibitory concentration) was defined as the concentration of compound that inhibited cell proliferation by 50%. The IC50 values represent the average (± standard deviation) of three independent experiments. Human peripheral blood mononuclear cells (PBMC) were obtained from healthy donors by centrifugation with Ficoll-Paque Plus (GE Healthcare Bio-Sciences AB, Uppsala).

Experiment [2] relates to tubulin (colchicine site). Nature of the experiment: Inhibition of [3H]colchicine binding to tubulin. Set-up: species or system Bovine. Particulars: tubulin 1 μM, colchicine 5 μM, compound 5 μM. The protocol: (§3) Bovine brain tubulin was purified as described previously. To evaluate the effect of the compounds on tubulin assembly in vitro [59], varying concentrations were preincubated with 10 μM tubulin in 0.8 M glutamate buffer at 30 °C and then cooled to 0 °C. After addition of GTP, the mixtures were transferred to 0 °C cuvettes in a recording spectrophotometer and warmed to 30 °C, and the assembly of tubulin was observed turbidimetrically. […] The ability of the test compounds to inhibit colchicine binding to tubulin was measured as described earlier, except that the reaction mixtures contained 1 μM tubulin, 5 μM of [^3H]colchicine, and test compounds 3a or 3b.

Experiment [3] relates to L1210, CEM, and HeLa cells. Nature of the experiment: Antiproliferative activity, panel of three cancer cell lines. The experiment is classed as cell-based. Particulars: for IC50: span over L1210, CEM and HeLa, read-out: IC50 values against the panel of three cancer cell lines.
Excerpt: as §1, §2

In experiment [4] the test system is human cervix carcinoma (HeLa) cells. Nature of the experiment: In vitro antiproliferative assay, HeLa cells. The experiment is classed as cell-based. Particulars: for fold more active than 2b against HeLa cells: relative to 2b (IC50: 41 μM); for IC50: human cervix carcinoma HeLa, 72 h, cell count, mean ± SE. The protocol:
as §2, with “The IC50 (50% inhibitory concentration) was defined as the concentration of compound that inhibited cell proliferation by 50%.” left out

Experiment [5] concerns human T-lymphoblastoid leukemia (CEM) cells. The experiment can be described thus: In vitro antiproliferative assay, CEM cells. The experiment is classed as cell-based. The following applies: CCRF-CEM; human T-lymphocyte CEM, 72 h, cell count; mean ± SE. The protocol:
as §2, with “The IC50 (50% inhibitory concentration) was defined as the concentration of compound that inhibited cell proliferation by 50%.” left out

Experiment [6] concerns human peripheral blood mononuclear cells (PBMC). Nature of the experiment: Antiproliferative activity in normal human cells (PBMC). The experiment is classed as cell-based. The following applies: 72 h. The protocol:
In order to investigate the selective antiproliferative activities of derivatives 3a and 3b in normal human cells, both these molecules were tested in vitro against human peripheral blood mononuclear cells (PBMC) isolated from healthy donors.
as §2

Experiment [7] relates to Bovine brain tubulin. Nature of the experiment: Inhibition of tubulin polymerization (turbidimetric assembly). It is filed as biochemical. Particulars: tubulin at 10 μM, 20 min incubation; read-out: Tubulin assembly IC50 ± SD. The protocol: as §3
Experiment [8] has as its system K562 cells. Nature of the experiment: Cell cycle distribution by flow cytometry (Muse Cell Analyzer). The experiment is classed as cell-based, human. The following applies: K562, 72 h, three experiments, average ± S.D.; for percentage of G2/M-phase cells at IC50: at IC50 (3a 0.75 μM, 3b 0.70 μM); for percentage of G2/M-phase cells at IC75: at IC75 (3a 1.0 μM, 3b 0.90 μM). The procedure: The cells were cultured for 72 h in the presence of two different concentrations (IC50 and IC75) for each tested derivative and the obtained results were compared with non-treated K562 cells as control.
Human leukemia K562 cells were treated with compounds 3a or 3b, and analysis of the distribution of the cells through the cell cycle was performed with the Muse Cell Analyzer instrument (Millipore Corporation, Billerica, MA, USA). Assay and cell counting were performed according to the instructions supplied by the manufacturer. Samples were collected after the treatment and washed in PBS. For analysis, 5 × 10^5 cells were resuspended in 200 μL of Muse Cell Cycle Reagent, incubated for 30 min at room temperature, and the cell suspension was transferred to a 1.5 mL microcentrifuge tube prior to analysis. Cells were analyzed by fluorescence-activated cell sorting analysis using a Muse Cell Analyzer.

In experiment [9] the test system is human chronic myelogenous leukemia K562 cells. The experiment can be described thus: In vitro antiproliferative assay, K562 cells. It is filed as cell-based. Particulars: 72 h; for IC50: Homo sapiens. The protocol:
These values are 1.5-fold lower than those obtained with the 6-methoxycarbonyl derivative 3a against L1210 and HeLa cells, while both compounds were equipotent against CEM cells.
as §2

For experiment [10], the system named is K562 cells. Nature of the experiment: Apoptosis assay (Muse Annexin V & Dead Cell Kit). The experiment is classed as cell-based, human. Particulars: K562, 72 h, representative experiment; for cells undergoing apoptosis (total) at IC50: at IC50 (3a 0.75 μM, 3b 0.70 μM); for cells undergoing apoptosis (total) at IC75: at IC75 (3a 1.00 μM, 3b 0.90 μM). The text has this:
This phospholipid flips from the inner to the outer leaflet of the plasma membrane during apoptosis. Positive staining with annexin-V correlates with the loss of plasma membrane polarity, but this staining precedes the complete loss of membrane integrity that accompanies the later stages of cell death, resulting from either apoptosis or necrosis. In contrast, PI can only enter cells after complete loss of membrane integrity. Thus, dual staining for annexin-V and with PI permits discrimination between unaffected cells (annexin-V^−/PI^−), early apoptotic cells (annexin-V^+/PI^−), late apoptotic cells (annexin-V^+/PI^+), and necrotic cells (annexin-V^−/PI^+).
Apoptosis assays on K562 cells were performed with the Muse Cell Analyzer instrument, and assays were performed according to the instructions supplied by the manufacturer. The Muse Annexin V & Dead Cell Kit employs annexin V to detect phosphatidyl serine (PS) on the external membrane of apoptotic cells. A fluorescent DNA intercalator (7-ADD: 7-aminoactinomycin D) is also used as an indicator of cell membrane integrity. From live, healthy cells, as well as early apoptotic cells, 7-ADD is excluded while it is able to bind DNA in cells in late apoptosis and in dead cells. Cells were washed with sterile PBS 1X, suspended, and diluted (1:2) with the Muse Annexin V & Dead Cell reagent. Samples were gently mixed and incubated at room temperature, protected from the light for 15 min. Samples were analyzed using a Muse Cell Analyzer, and data from prepared samples were acquired and recorded utilizing the Annexin V and Dead Cell Software Module (Millipore).

[11] abbreviates: phytohemagglutin (PHA)-stimulated PBMC, read-out: IC50 PBMC, PHA-stimulated.
Where [12] appears, read: resting PBMC from healthy donors, read-out: IC50 PBMC, resting.

In general, IC50 refers to the point on the concentration scale where inhibition reaches its midpoint. Turning to `COC(=O)N1CCc2c(sc(Nc3cc(OC)c(OC)c(OC)c3)c2C#N)C1` [Compound 3a, Methyl 3-cyano-2-((3,4,5-trimethoxyphenyl)amino)-4,5-dihydrothieno[2,3-c]pyridine-6(7H)-carboxylate], the IC50 in [1] was 4700 ± 400 nM; in experiment [3], 1900 to 4700 nM; in experiment [4] it was 1900 ± 1200 nM; in experiment [5] it was 2900 ± 2100 nM; in experiment [6] (setting [11]), more than 20000 nM; in experiment [6] (setting [12]), more than 20000 nM. Also, the figures for the IC50 in experiment [7] and in [9] were 3800 ± 50 nM and 750 nM, respectively. In addition, the “Colchicine binding % ± SD (inhibition of [3H]colchicine binding)” value in [2] was determined as 29 ± 1%. Moreover, the “fold more active than 2b against HeLa cells” value in [4] is 40 fold. For the same compound, in [8], the “percentage of G2/M-phase cells at IC50” value was 33.6% ± 1.1%. Moreover, the “percentage of G2/M-phase cells at IC75” value in [8] is 34.9% ± 1.3%. Further, in experiment [9], the “IC75 K562” value is 1000 nM. For the same compound, the “cells undergoing apoptosis (total) at IC50” value in [10] was determined as 29.64%. The “cells undergoing apoptosis (total) at IC75” value in experiment [10] is 46.68%.

In the case of `CCOC(=O)N1CCc2c(sc(Nc3cc(OC)c(OC)c(OC)c3)c2C#N)C1` [Compound 3b, Ethyl 3-cyano-2-((3,4,5-trimethoxyphenyl)amino)-4,5-dihydrothieno[2,3-c]pyridine-6(7H)-carboxylate], the IC50 in [1] is 2800 ± 2300 nM; in [3] it was 1100 to 2800 nM; in experiment [4], 1100 nM; in experiment [5] it was 2300 ± 1700 nM; in experiment [6] (setting [11]), more than 20000 nM; in [6] (setting [12]), more than 20000 nM. Also, the IC50 in experiment [7] came to 3400 ± 50 nM; in experiment [9], 700 nM. Moreover, the “Colchicine binding % ± SD (inhibition of [3H]colchicine binding)” value in [2] is 31 ± 1%. In addition, the “fold lower IC50 than 3a” value in experiment [3] (against L1210 and HeLa cells) worked out at 1.5 fold. Further, the “fold more active than 2b against HeLa cells” value in [4] was determined as 20 fold. Besides, the “percentage of G2/M-phase cells at IC50” value in [8] is listed as 30.3% ± 1.3%. The “percentage of G2/M-phase cells at IC75” value in experiment [8] is 33.5% ± 0.6%. In addition, the “IC75 K562” value in [9] is 900 nM. The “cells undergoing apoptosis (total) at IC50” value in [10] was 32.87%. For the same compound, the “cells undergoing apoptosis (total) at IC75” value in experiment [10] stood at 56.01%.
